The values below come from PubChem BioAssay (NCI).

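Grown in 96-well plates, cells were treated for 48 hours with each compound at five concentrations. Insufficient inhibition: endpoint recorded as highest concentration tested. At the GI50, growth is halved. TGI: concentration producing complete growth inhibition.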

Holding throughout (assay): NCI anticancer screen, dose series, 48 h
Assay [1] has as its system 786-0 renal.
Assay [2] concerns CCRF-CEM leukemia.
Assay [3] deals with COLO 205 colon.
For assay [4], the system named is HCT-116 colon.
The test system of assay [5] is IGROV1 ovarian.
Assay [6] concerns K-562 leukemia.
Assay [7] deals with PC-3 prostate.
The test system of assay [8] is SK-MEL-2 melanoma.
The test system of assay [9] is SR leukemia.
Assay [10] relates to U251 CNS.

Turning to `CCOC(=O)c1cc2c(cc1Cl)SC(N(c1ccc(OC)cc1)S(=O)(=O)c1ccc(Cl)cc1)=NS2(=O)=O`, the GI50 in assay [1] was 62.2 µM; in assay [2], 0.666 µM; in assay [3] it was 18.4 µM; in assay [4], 35800 nM; in [5], 49600 nM; in assay [6] it was 38.6 µM. In addition, the GI50 in assay [7] is 20 µM; in assay [8] it was 24.7 µM; in assay [9] it was 24.8 µM; in assay [10], 29.1 µM. Besides, the TGI in assay [1] is more than 100 µM; in assay [2], more than 100 µM; in [3] it was 48.7 µM; in assay [4], more than 100 µM; in [5], more than 100 µM; in assay [6] it was more than 100 µM. Also, the TGI in assay [7] is 58.6 µM; in assay [8] it was more than 100 µM; in assay [9], 98.6 µM; in assay [10], 88.4 µM.
On to `Clc1ccc(-c2c3c(nn2-c2ccccn2)CCc2ccccc2-3)cc1Cl`, for which the GI50 in assay [1] is 85 µM; in assay [2] it was more than 100 µM; in assay [3], more than 100 µM; in assay [4] it was 76100 nM; in assay [5], more than 100000 nM; in assay [6], more than 100 µM. The GI50 in assay [7] was more than 100 µM; in [8], more than 100 µM; in [9], 78.1 µM; in assay [10], more than 100 µM. In addition, the TGI in assay [1], in assay [2], in assay [3], in assay [4], in assay [5] and in [6] was more than 100 µM each time. Moreover, the TGI in [7], in assay [8], in [9] and in assay [10] was more than 100 µM each time.
Regarding `CN(Cc1ccccc1)c1ccc(CO)c(Cl)c1`, the GI50 in assay [1] is 15.7 µM; in assay [2] it was 32.5 µM; in assay [3] it was 7.19 µM; in [4], 533 nM; in assay [5], 467 nM; in assay [6], 9.81 µM. Also, the GI50 in assay [7] is 28.6 µM; in assay [8] it was 8.78 µM; in assay [9], 19 µM; in assay [10], 4.55 µM. In addition, the TGI in [1] is more than 100 µM; in [2] it was more than 100 µM; in assay [3], 22.5 µM; in assay [4] it was 15.1 µM; in assay [5], 3.01 µM; in assay [6], more than 100 µM. Moreover, the TGI is more than 100 µM in assay [7], 49.2 µM in assay [8], more than 86.6 µM in assay [9] and more than 90.8 µM in [10].
Take `CC(=O)C1=C(O)C=C2Oc3c(C(=O)/C=C/c4c(Cl)cccc4Cl)c(O)c(C)c(O)c3[C@]2(C)C1=O`: the GI50 was 1.71 µM in assay [1]; 0.573 µM in assay [2]; 2.34 µM in [3]; 536 nM in [4]; 1560 nM in [5]; 0.619 µM in [6]. Moreover, the GI50 in assay [7] is 0.596 µM; in assay [8], 0.64 µM; in assay [9] it was 1.52 µM; in [10] it was 0.754 µM. Moreover, the TGI came to 5.44 µM in assay [1]; 5.43 µM in [2]; 5.25 µM in assay [3]; 2.7 µM in [4]; 9.37 µM in [5]; 15 µM in [6]. Also, the TGI in assay [7] amounted to 2.49 µM; in [8] it was 2.87 µM; in assay [9], 7.7 µM; in assay [10] it was 4.09 µM.
Consider `Cc1cc(N2CCOCC2)nc(N[C@@H]2CCC[C@H](Nc3ccnc4cc(Cl)ccc34)C2)n1`, for which the GI50 in assay [1] was 1.73 µM; in assay [2] it was 3.31 µM; in assay [3], 1.68 µM; in [4], 1980 nM; in assay [5] it was 2230 nM; in assay [6], 1.21 µM. The GI50 was 2.38 µM in assay [7], 2.07 µM in assay [8], 1.05 µM in assay [9] and 2.1 µM in [10]. In addition, the TGI in assay [1] was found to be 3.27 µM; in assay [2] it was 9.25 µM; in assay [3], 3.33 µM; in assay [4] it was 4.26 µM; in [5], 6.6 µM; in assay [6] it was 3.69 µM. The TGI in [7] came out at 6.01 µM; in [8], 4.02 µM; in [9] it was 3.83 µM; in assay [10], 4.4 µM.
Take `S=C(Nc1ccc(-c2nc3ccccc3[nH]2)cc1)Nc1ccc(-c2nc3ccccc3[nH]2)cc1`: the GI50 in assay [1] is 89.7 µM; in [2] it was 92 µM; in [3], more than 100 µM; in assay [4], 55400 nM; in [5], 64100 nM; in assay [6], 83.4 µM. In addition, the GI50 in assay [7] is more than 100 µM; in assay [8], more than 100 µM; in assay [9], 63.4 µM; in assay [10], more than 100 µM. Also, the TGI in assay [1], in [2], in [3], in assay [4], in assay [5] and in [6] was more than 100 µM each time. The TGI in assay [7], in assay [8], in assay [9] and in assay [10] was more than 100 µM throughout.
Take `c1ccc(CN2COc3c(ccc4c3OCN(Cc3ccccc3)C4)C2)cc1`: the GI50 in assay [1] was 0.809 µM; in assay [2] it was 0.451 µM; in [3], 1.96 µM; in assay [4], 535 nM; in assay [5], 802 nM; in assay [6], 0.445 µM. The GI50 was 0.579 µM in [7], 3.98 µM in assay [8], 0.534 µM in [9] and 0.382 µM in assay [10]. Besides, the TGI in assay [1] is more than 100 µM; in assay [2], more than 100 µM; in [3], more than 42 µM; in assay [4], more than 100 µM; in [5], more than 100 µM; in assay [6], more than 100 µM. Besides, the TGI in assay [7], in assay [8], in assay [9] and in assay [10] was more than 100 µM each time.
